This passage reports IC50 results from patent publication US10538528B2, “5H-pyrrolo[2,3-D]pyrimidin-6(7H)-one derivative” (Taiho Pharmaceutical Co., Ltd., priority 2016, dated 2020).

The term IC50 denotes the midpoint of a concentration-inhibition curve.

One assay has as its target Rsk1 (Homo sapiens (Human), UniProt Q15418). The experiment in a line: Inhibitory effects on Rsk1 kinase activity (QSS Assist FP assay kit). Format: biochemical. The conditions noted are these: Rsk1, ATP 30 μM; read-out: Rsk inhibitory activity IC50. The protocol: Inhibitory activity of the compound according to the present invention on Rsk1 kinase activity in vitro was assayed using the QSS Assist™ FP assay kit (Carna Biosciences, Inc.).
In the inhibition assay of inhibitory activity of the compound, the test compound was diluted by serial dilution with dimethyl sulfoxide (DMSO). Subsequently, an Rsk1 protein, a substrate peptide (final concentration: 100 nM), magnesium chloride (final concentration: 10 mM), ATP (final concentration: 30 μM), and the solution of the test compound in DMSO (DMSO final concentration: 5%) were added to the kinase reaction buffer (20 mM HEPES (pH 7.4), 2 mM dithiothreitol, 0.01% Tween-20), and the mixture was incubated at 25° C. for 40 minutes to perform the kinase reaction. The IMAP Progressive Binding Reagent diluted to 400-fold with the IMAP Progressive Binding Buffer A (Molecular Devices, LLC) was added to terminate the kinase reaction.

For another assay, the target named is S6K1 (Homo sapiens (Human), UniProt P23443). The experiment in a line: Inhibitory effects on S6K1 kinase activity (QSS Assist FP assay kit). Format: biochemical. The conditions noted are these: S6K1, ATP 25 μM; read-out: S6K inhibitory activity IC50. As for the experimental part:
Inhibitory activity of the compound according to the present invention on S6K1 kinase activity in vitro was assayed using the QSS Assist™ FP assay kit (Carna Biosciences, Inc.).
In the inhibition assay for inhibitory activity of the compound, the test compound was diluted by serial dilution with dimethyl sulfoxide (DMSO). Subsequently, an S6K protein, a substrate peptide (final concentration: 100 nM), magnesium chloride (final concentration: 5 mM), ATP (final concentration: 25 μM), and the solution of the test compound in DMSO (final DMSO concentration: 5%) were added to the kinase reaction buffer (20 mM HEPES (pH 7.4), 2 mM dithiothreitol, 0.01% Tween-20), and the mixture was incubated at 25° C. for 30 minutes to perform the kinase reaction. The IMAP Progressive Binding Reagent diluted to 400-fold with the IMAP Progressive Binding Buffer A (Molecular Devices, LLC) was added thereto to terminate the kinase reaction. The reaction product was allowed to stand at room temperature in the dark for 120 minutes and assayed with the use of PHERAstar (BMG LABTECH; excitation wavelength: 485 nm; detection wavelength: 520 nm). The level of phosphorylation reaction was determined based on the degree of fluorescence polarization, and the concentration of the compound at which phosphorylation could be inhibited by 50% was defined as the IC50 level (nM) and shown in Table 4.

Sequence of S6K1 (P23443 whole entry): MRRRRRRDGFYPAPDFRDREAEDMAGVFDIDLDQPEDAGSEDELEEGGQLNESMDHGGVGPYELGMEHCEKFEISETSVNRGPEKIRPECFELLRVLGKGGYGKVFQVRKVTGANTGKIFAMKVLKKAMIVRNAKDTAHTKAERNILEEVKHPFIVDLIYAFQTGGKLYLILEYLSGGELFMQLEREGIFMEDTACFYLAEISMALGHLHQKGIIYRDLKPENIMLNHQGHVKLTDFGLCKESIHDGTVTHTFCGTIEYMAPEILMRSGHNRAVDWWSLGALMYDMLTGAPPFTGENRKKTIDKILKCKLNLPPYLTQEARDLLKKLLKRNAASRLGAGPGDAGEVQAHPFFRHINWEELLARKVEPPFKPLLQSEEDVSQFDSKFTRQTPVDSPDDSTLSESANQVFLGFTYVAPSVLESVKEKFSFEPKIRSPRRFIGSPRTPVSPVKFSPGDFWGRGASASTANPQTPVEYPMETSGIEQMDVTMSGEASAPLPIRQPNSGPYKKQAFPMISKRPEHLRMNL
Sequence of Rsk1 (Q15418 whole entry): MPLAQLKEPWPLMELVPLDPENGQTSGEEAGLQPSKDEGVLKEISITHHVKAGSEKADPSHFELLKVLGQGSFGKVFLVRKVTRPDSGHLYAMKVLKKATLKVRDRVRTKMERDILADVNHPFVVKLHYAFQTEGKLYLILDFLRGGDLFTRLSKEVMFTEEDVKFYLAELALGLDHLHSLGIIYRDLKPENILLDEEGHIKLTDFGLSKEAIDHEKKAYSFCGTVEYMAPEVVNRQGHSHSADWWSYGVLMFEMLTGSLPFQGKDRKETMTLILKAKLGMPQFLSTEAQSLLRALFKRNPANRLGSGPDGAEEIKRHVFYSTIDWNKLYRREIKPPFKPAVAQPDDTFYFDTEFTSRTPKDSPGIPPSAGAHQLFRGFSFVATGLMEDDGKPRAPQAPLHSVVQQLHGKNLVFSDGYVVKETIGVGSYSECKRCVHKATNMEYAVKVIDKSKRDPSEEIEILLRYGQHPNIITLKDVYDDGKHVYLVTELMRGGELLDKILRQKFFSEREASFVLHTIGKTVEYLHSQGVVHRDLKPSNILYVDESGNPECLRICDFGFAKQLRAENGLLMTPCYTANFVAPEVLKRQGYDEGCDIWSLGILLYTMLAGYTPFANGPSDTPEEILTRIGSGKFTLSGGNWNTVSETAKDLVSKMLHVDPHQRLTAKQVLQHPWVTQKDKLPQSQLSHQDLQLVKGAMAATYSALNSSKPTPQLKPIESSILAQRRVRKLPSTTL

Turning to `CC(C)NCCNc1ccc(-c2cc(C(F)(F)F)nn2C)nc1C1CCN(c2ncnc3c2C(C)(C)C(=O)N3)CC1` [Compound 10, 4-(4-(3-((2-(Isopropylamino)ethyl)amino)-6-(1-methyl-3-(trifluoromethyl)-1H-pyrazol-5-yl)pyridin-2-yl)piperidin-1-yl)-5,5-dimethyl-5H-pyrrolo[2,3-d]pyrimidin-6(7H)-one], the IC50 on Rsk1 stood at 0.9 nM; on S6K1 it was 0.3 nM.
Taken in the same sequence, the figures for `CC1(C)C(=O)Nc2ncnc(N3CCC(c4nc(-c5cncc(F)c5)ccc4NCCN4CCCC4)CC3)c21` [Compound 8, 4-(4-(5′-Fluoro-5-((2-(pyrrolidin-1-yl)ethyl)amino)-[2,3′-bipyridin]-6-yl)piperidin-1-yl)-5,5-dimethyl-5H-pyrrolo[2,3-d]pyrimidin-6(7H)-one] were 1.7 nM and 0.3 nM.
As for `CC1C(=O)Nc2ncnc(N3CCN(c4nc(-c5cncc(F)c5)ccc4NCCN(C)C)CC3)c21` (stereo not drawn) [Compound 29, 4-(4-(5-((2-(Dimethylamino)ethyl)amino)-5′-fluoro-[2,3′-bipyridin]-6-yl)piperazin-1-yl)-5-methyl-5H-pyrrolo[2,3-d]pyrimidin-6(7H)-one], the concentration for half-maximal inhibition (IC50) at S6K1 was found to be 0.8 nM.
Same read-out and setting: under `Cc1cc(-c2ccc(NCCN3CCCC3)c(C3CCN(c4ncnc5c4C(C)(C)C(=O)N5)CC3)n2)n(C)n1` [Compound 3, 4-(4-(6-(1,3-Dimethyl-1H-pyrazol-5-yl)-3-((2-(pyrrolidin-1-yl)ethyl)amino)pyridin-2-yl)piperidin-1-yl)-5,5-dimethyl-5H-pyrrolo[2,3-d]pyrimidin-6(7H)-one] stands 0.4 nM.
Turning to `CC1(C)C(=O)Nc2ncnc(N3CCC(c4nc(-c5nnc(C(F)(F)F)o5)ccc4NC[C@@H]4CCCN4)CC3)c21` [Compound 35, (S)-5,5-Dimethyl-4-(4-(3-((pyrrolidin-2-yl-methyl)amino)-6-(5-(trifluoromethyl)-1,3,4-oxadiazol-2-yl)pyridin-2-yl)piperidin-1-yl)-5H-pyrrolo[2,3-d]pyrimidin-6(7H)-one], the IC50 turned out to be 1.5 nM at Rsk1 and 0.4 nM at S6K1.
Consider `CN(C)CCNc1ccc(-c2cc(Cl)nn2C)nc1C1CCN(c2ncnc3c2C(C)(C)C(=O)N3)CC1` [Compound 9, 4-(4-(6-(3-Chloro-1-methyl-1H-pyrazol-5-yl)-3-((2-(dimethylamino)ethyl)amino)pyridin-2-yl)piperidin-1-yl)-5,5-dimethyl-5H-pyrrolo[2,3-d]pyrimidin-6(7H)-one], for which the concentration for half-maximal inhibition (IC50) came out at 1.1 nM at Rsk1 and 0.3 nM on S6K1.
The like results for `Cc1nc(C)c(-c2ccc(NCCNC(C)C)c(C3CCN(c4ncnc5c4C(C)(C)C(=O)N5)CC3)n2)s1` [Compound 6, 4-(4-(6-(2,4-Dimethylthiazol-5-yl)-3-((2-(isopropylamino)ethyl)amino)pyridin-2-yl)piperidin-1-yl)-5,5-dimethyl-5H-pyrrolo[2,3-d]pyrimidin-6(7H)-one] were, in that order, 1 nM and 0.4 nM.
On to `Cc1nnc(-c2ccc(NCCN3CCCC3)c(C3CCN(c4ncnc5c4C(C)(C)C(=O)N5)CC3)n2)s1` [Compound 36, 5,5-Dimethyl-4-(4-(6-(5-methyl-1,3,4-thiadiazol-2-yl)-3-((2-(pyrrolidin-1-yl)ethyl)amino)pyridin-2-yl)piperidin-1-yl)-5H-pyrrolo[2,3-d]pyrimidin-6(7H)-one], for which, at S6K1, the IC50 was determined as 0.4 nM.
Turning to `CC(C)(C)NCCNc1ccc(-c2cnn(C(F)F)c2)nc1C1CCN(c2ncnc3c2C(C)(C)C(=O)N3)CC1` [Compound 4], the IC50 at S6K1 is 0.4 nM.
Same read-out and setting: under `CC(C)NCCNc1cc(F)c(-c2cncc(F)c2)nc1C1CCN(c2ncnc3c2C(C)(C)C(=O)N3)CC1` [Compound 28, 4-(4-(3,5′-Difluoro-5-((2-(isopropylamino)ethyl)amino)-[2,3′-bipyridin]-6-yl)piperidin-1-yl)-5,5-dimethyl-5H-pyrrolo[2,3-d]pyrimidin-6(7H)-one] stands 0.3 nM.
